Measurements reported in patent US20240344014A1, “3D SHELL MICR[…] FOR EL[…] ORGANOIDS” (The Johns Hopkins University, priority 2023, published 2024).

System: brain organoids
Test: 3D shell MEA recording of brain organoid electrical activity with glutamate stimulation
Format: cell-based, human
Settings: brain organoid in 3D shell MEA
Excerpt: A 9-week brain organoid was placed at the center of the shell electrodes during self-folding, which allowed the organoid to be enveloped within the leaflets with the PEDOT: PSS electrodes in intimate contact with the organoid (FIG. 10B). A glass cylinder was placed around the device to hold the cell media. Electrode outputs were fabricated for signal acquisition (FIG. 10A). The three PEDOT: PSS electrodes on the leaflets successfully recorded the field potential of the enveloped brain organoid (FIG. 10C, FIG. 11). […] The overlaid spike waveform indicates an average spike duration of ˜2 ms, with varied amplitude during the recording (FIG. 10E). We note that we can add more electrodes to the leaflets to improve the recording (FIGS. 12A-12F, FIGS. 13A-13D).
We further confirm that the signal recorded is from the brain organoids by examining the response to 20 μM glutamate neurotransmitter added to the culture media that served as a positive control for the spontaneous recording (23, 37). […]
After preprocessing the raw signals, we detected spikes separate for each channel using a threshold-based method, where the threshold is automatically set to be 5σn. […] After spike locations were detected, we isolated them by windows of length 3.5 ms. […]

## N[C@@H](CCC(=O)O)C(=O)O [glutamate]
20 μM glutamate added to the culture media, before vs after application
  spike signal-to-noise ratio (SNR), increase of median (amplitude of firing spikes): 57.6%
20 μM glutamate, before vs after stimulation
  inter-spike-interval (ISI) of glutamate-induced signals: longer
